Measured values: patent US12378250B2, “Tricyclic compound as IRAK4 inhibitor” (KOREA RESEARCH INSTITUTE OF CHEMICAL TECHNOLOGY, priority 2018, dated 2025)

Target: T1, IRAK4 enzyme (Homo sapiens, UniProt Q9NWZ3)
T1 sequence (Q9NWZ3 1-460): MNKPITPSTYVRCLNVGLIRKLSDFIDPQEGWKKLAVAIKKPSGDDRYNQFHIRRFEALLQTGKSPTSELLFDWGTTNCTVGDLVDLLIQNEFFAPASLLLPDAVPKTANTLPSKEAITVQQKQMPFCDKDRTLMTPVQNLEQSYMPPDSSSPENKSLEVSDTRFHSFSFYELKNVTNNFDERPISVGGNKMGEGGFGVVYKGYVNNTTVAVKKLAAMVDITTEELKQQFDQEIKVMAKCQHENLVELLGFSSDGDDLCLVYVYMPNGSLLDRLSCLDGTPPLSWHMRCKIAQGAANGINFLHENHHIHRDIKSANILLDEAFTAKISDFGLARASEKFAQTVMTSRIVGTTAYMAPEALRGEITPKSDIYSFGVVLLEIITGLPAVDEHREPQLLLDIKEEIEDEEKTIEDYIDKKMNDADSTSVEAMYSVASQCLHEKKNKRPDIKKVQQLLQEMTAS
Test: IRAK4 enzyme inhibition degree (bead-based kinase assay, peptide substrate BMKC-2, 100 μM ATP)
Format: biochemical
Settings: for inhibition at 1 µM: compound 1 μM
Method: 2.5 μl of a compound diluted to 4-fold of a final concentration was put into a 384-well white plate (low volume). 2.5 μl of 0.4 ng/μl IRAK4 enzyme was added thereto, and the resulting mixture was totally reacted for 10 minutes. 5 μl of a mixed liquid of a 6 μM peptide substrate (BMKC-2) and 100 μM ATP was added thereto, the resulting mixture was reacted at room temperature for 60 minutes, then 2.5 μl of 10 mM EDTA was added thereto, and the resulting mixture was reacted again for 10 minutes. 40 nM anti-phospho Thr antibody was aliquoted to 2.5 μl each, 5 μl of a mixed solution of a 160 μl/ml acceptor bead and a donor bead was added thereto, and then the resulting mixture was reacted at room temperature for 60 minutes. Fluorescence signals were measured using a bead experimental apparatus (Fusion alpha-FP Microplate Reader, Perkin Elmer Inc.).
From the detected signal, an activity inhibition rate [% inhibition degree=(the average value of a compound−the average value of a negative control)/(the average value of a positive control−the average value of a negative control)×100] was calculated, and is shown in [Table 1]. Further, a % inhibition degree of the compound at each concentration was obtained, and then a 50% inhibition concentration (IC50 value) was analyzed by a non-linear regression analysis.

SMILES | IC50 | inhibition at 1 µM
Cn1cc(-c2ccc3[nH]c4ncnc(NCCN5CCN(C(=O)OC(C)(C)C)CC5)c4c3c2)cn1 [Compound 6afa, tert-butyl 4-(2-((6-(1-methyl-1H-pyrazol-4-yl)-9H-pyrimido[4,5-b]indol-4-yl)amino)ethyl)piperazine-1-carboxylate] | 1050 nM | 36%
COC(=O)c1ccc2c(c1)[nH]c1ncnc(Nc3ccc(N4CCOCC4)cc3)c12 [Compound 5db, methyl 4-((4-morpholinophenyl)amino)-9H-pyrimido[4,5-b]indole-7-carboxylate] |  | < 1%
CC(C)(C)OC(=O)N1CCC(n2cc(-c3ccc4[nH]c5ncnc(N[C@H]6CC[C@H](N7CCOCC7)CC6)c5c4c3)cn2)CC1 [Compound 6aaq, tert-butyl 4-(4-(4-((trans-4-morpholinocyclohexyl)amino)-9H-pyrimido[4,5-b]indol-6-yl)-1H-pyrazol-1-yl)piperidine-1-carboxylate] | 565 nM | 59%
N#Cc1cc(F)cc(-c2ccc3[nH]c4ncnc(N[C@H]5CC[C@H](N6CCOCC6)CC5)c4c3c2)c1 [Compound 6aap, 3-fluoro-5-(4-((trans-4-morpholinocyclohexyl)amino)-9H-pyrimido[4,5-b]indol-6-yl) benzonitrile] | 780 nM | 56%
c1nc(N[C@H]2CC[C@H](N3CCOCC3)CC2)c2c(n1)[nH]c1ccc(-c3nnc4n3CCC4)cc12 [Compound 6bad, 6-(6,7-dihydro-5H-pyrrolo[2,1-c][1,2,4]triazol-3-yl)-N-(trans-4-morpholinocyclohexyl)-9H-pyrimido[4,5-b]indole-4-amine] | 928 nM | 52%
Cn1cc(-c2ccc3[nH]c4ncnc(NCCCN5CCOCC5)c4c3c2)cn1 [Compound 6aea, 6-(1-methyl-1H-pyrazol-4-yl)-N-(3-morpholinopropyl)-9H-pyrimido[4,5-b]indole-4-amine] | 1530 nM | 34%
CCOC(=O)c1ccc2[nH]c3ncnc(Nc4ccc(OC)cc4)c3c2c1 [Compound 5bc, ethyl 4-((4-methoxyphenyl)amino)-9H-pyrimido[4,5-b]indole-6-carboxylate] |  | 9%
COC(=O)c1ccc2c(c1)[nH]c1nc(-c3cccc([N+](=O)[O-])c3)nc(N[C@H]3CC[C@H](N4CCOCC4)CC3)c12 [Compound 11b, methyl 4-((trans-4-morpholinocyclohexyl)amino)-2-(3-nitrophenyl)-9H-pyrimido[4,5-b]indole-7-carboxylate] |  | 10%
O=c1[nH]nc(-c2ccc3[nH]c4ncnc(N[C@H]5CC[C@H](N6CCOCC6)CC5)c4c3c2)[nH]1 [Compound 6baf, 5-(4-((trans-4-morpholinocyclohexyl)amino)-9H-pyrimido[4,5-b]indol-6-yl)-2,4-dihydro-3H-1,2,4-triazole-3-one] | 509 nM | 70%
Cn1cnnc1-c1ccc2[nH]c3ncnc(N[C@H]4CC[C@H](N5CCOCC5)CC4)c3c2c1 [Compound 6bac, 6-(4-methyl-4H-1,2,4-triazol-3-yl)-N-(trans-4-morpholinocyclohexyl)-9H-pyrimido[4,5-b]indole-4-amine] | 842 nM | 60%
Cn1cc(-c2ccc3[nH]c4ncnc(NCCN5CCOCC5)c4c3c2)cn1 [Compound 6ada, 6-(1-methyl-1H-pyrazol-4-yl)-N-(2-morpholinoethyl)-9H-pyrimido[4,5-b]indole-4-amine] | 861 nM | 53%
Cn1cc(-c2ccc3[nH]c4ncnc(OCCN5CCOCC5)c4c3c2)cn1 [Compound 6aha, 4-(2-((6-(1-methyl-1H-pyrazol-4-yl)-9H-pyrimido[4,5-b]indol-4-yl)oxy)ethyl)morpholine] | 1040 nM | 41%

The remaining molecules from weak to strong by IC50, led by results:

IC50 | inhibition at 1 µM | SMILES
308 nM | 70% | c1nc(N[C@H]2CC[C@H](N3CCOCC3)CC2)c2c(n1)[nH]c1ccc(-c3nnc[nH]3)cc12 [Compound 6baa, N-(trans-4-morpholinocyclohexyl)-6-(4H-1,2,4-triazol-3-yl)-9H-pyrimido[4,5-b]indole-4-amine]
210 nM | 86% | Cc1nnc(-c2ccc3[nH]c4ncnc(N[C@H]5CC[C@H](N6CCOCC6)CC5)c4c3c2)[nH]1 [Compound 6bab, 6-(5-methyl-4H-1,2,4-triazol-3-yl)-N-(trans-4-morpholinocyclohexyl)-9H-pyrimido[4,5-b]indole-4-amine]
137 nM | 78% | c1nc(N[C@H]2CC[C@H](N3CCOCC3)CC2)c2c(n1)[nH]c1ccc(-c3cnn(C4CCNCC4)c3)cc12 [Compound 6aar, N-(trans-4-morpholinocyclohexyl)-6-(1-(piperidin-4-yl)-1H-pyrazol-4-yl)-9H-pyrimido[4,5-b]indole-4-amine]
79 nM | 91% | Fc1cncc(-c2ccc3[nH]c4ncnc(N[C@H]5CC[C@H](N6CCOCC6)CC5)c4c3n2)c1 [Compound 23a, 6-(5-fluoropyridin-3-yl)-N-(trans-4-morpholinocyclohexyl)-9H-pyrido[2′,3′:4,5]pyrrolo[2,3-d]pyrimidin-4-amine]
63 nM | 74% | N#Cc1cncc(-c2ccc3[nH]c4ncnc(N[C@H]5CC[C@H](N6CCOCC6)CC5)c4c3c2)c1 [Compound 6aao, 5-(4-((trans-4-morpholinocyclohexyl)amino)-9H-pyrimido[4,5-b]indol-6-yl) nicotinonitrile]
50 nM | 79% | CS(=O)(=O)N1CCC(n2cc(-c3ccc4[nH]c5ncnc(N[C@H]6CC[C@H](N7CCOCC7)CC6)c5c4c3)cn2)CC1 [Compound 6aas, 6-(1-(1-(methylsulfonyl)piperidin-4-yl)-1H-pyrazol-4-yl)-N-(trans-4-morpholinocyclohexyl)-9H-pyrimido[4,5-b]indole-4-amine]
8 nM | 94% | Cc1nnc(-c2ccc3[nH]c4ncnc(N[C@H]5CC[C@H](N6CCOCC6)CC5)c4c3c2)o1 [Compound 6bae, 6-(5-methyl-1,3,4-oxadiazol-2-yl)-N-(trans-4-morpholinocyclohexyl)-9H-pyrimido[4,5-b]indole-4-amine]
